From ChEMBL document CHEMBL1135235, “Structure-activity relationships of oxime neurokinin antagonists: oxime modifications” (Bioorg Med Chem Lett, 2002)

Assays:
Substance-P receptor = Substance-P receptor (Homo sapiens, UniProt P25103); assay: Binding affinity against recombinant human tachykinin receptor 1 in CHO cells using [3H]-Sar SP as a radioligand; format: cell-based
Substance-K receptor = target: T1, Substance-K receptor (Homo sapiens, UniProt P21452); assay: Binding affinity against recombinant human tachykinin receptor 2 in CHO cells using [3H]NKA as a radioligand; format: cell-based
T1 sequence (P21452 whole entry): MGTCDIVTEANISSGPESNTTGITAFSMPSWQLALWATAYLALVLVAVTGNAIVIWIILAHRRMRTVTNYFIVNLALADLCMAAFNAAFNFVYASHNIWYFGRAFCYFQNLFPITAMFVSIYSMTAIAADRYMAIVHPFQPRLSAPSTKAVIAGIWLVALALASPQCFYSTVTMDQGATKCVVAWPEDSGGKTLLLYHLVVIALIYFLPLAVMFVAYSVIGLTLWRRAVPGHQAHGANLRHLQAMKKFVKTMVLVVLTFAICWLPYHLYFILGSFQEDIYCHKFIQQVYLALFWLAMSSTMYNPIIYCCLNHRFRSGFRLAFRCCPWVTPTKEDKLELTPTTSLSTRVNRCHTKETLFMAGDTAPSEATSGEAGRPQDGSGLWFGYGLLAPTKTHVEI

Substance-P receptor, sequence (P25103 whole entry): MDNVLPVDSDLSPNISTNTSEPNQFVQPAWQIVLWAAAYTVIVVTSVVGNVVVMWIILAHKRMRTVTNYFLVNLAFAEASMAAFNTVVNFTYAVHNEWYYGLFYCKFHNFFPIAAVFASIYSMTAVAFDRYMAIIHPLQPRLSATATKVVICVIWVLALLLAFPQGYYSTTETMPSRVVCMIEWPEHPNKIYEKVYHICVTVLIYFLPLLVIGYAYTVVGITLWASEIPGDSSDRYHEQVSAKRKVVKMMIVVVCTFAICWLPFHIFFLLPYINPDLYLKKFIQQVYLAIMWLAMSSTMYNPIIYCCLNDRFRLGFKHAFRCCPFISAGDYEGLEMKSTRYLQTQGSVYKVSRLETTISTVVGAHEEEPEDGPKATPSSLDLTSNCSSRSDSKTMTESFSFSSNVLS

Ki (Substance-P receptor)	Ki (Substance-K receptor)	Structure (SMILES)
0.8 nM	3.5 nM	CN(C/C(=N\OCCC[S+](C)[O-])C(CCN1CCC(N2CCCCC2=O)CC1)c1ccc(Cl)c(Cl)c1)C(=O)c1cc(Cl)cc(Cl)c1 (stereo unspecified)
7.4 nM	11.5 nM	CSCCCO/N=C(\CN(C)C(=O)c1cc(Cl)cc(Cl)c1)C(CCN1CCC(N2CCCCC2=O)CC1)c1ccc(Cl)c(Cl)c1 (stereo unspecified)
0.9 nM	2 nM	CN(C/C(=N\OCC(N)=O)C(CCN1CCC(N2CCCCC2=O)CC1)c1ccc(Cl)c(Cl)c1)C(=O)c1cc(Cl)cc(Cl)c1 (stereo unspecified)
4.7 nM	16.7 nM	COC(=O)CO/N=C(\CN(C)C(=O)c1cc(Cl)cc(Cl)c1)C(CCN1CCC(N2CCCCC2=O)CC1)c1ccc(Cl)c(Cl)c1 (stereo unspecified)
0.8 nM	0.8 nM	CN(C/C(=N\OCF)C(CCN1CCC(N2CCCCC2=O)CC1)c1ccc(Cl)c(Cl)c1)C(=O)c1cc(Cl)cc(Cl)c1 (stereo unspecified)
0.7 nM	8.8 nM	CN(C/C(=N\OCCCN)C(CCN1CCC(N2CCCCC2=O)CC1)c1ccc(Cl)c(Cl)c1)C(=O)c1cc(Cl)cc(Cl)c1 (stereo unspecified)
0.7 nM	394 nM	CN(C/C(=N\OCC(=O)O)C(CCN1CCC(N2CCCCC2=O)CC1)c1ccc(Cl)c(Cl)c1)C(=O)c1cc(Cl)cc(Cl)c1 (stereo unspecified)
0.7 nM	1.5 nM	CN(C/C(=N\OCCCO)C(CCN1CCC(N2CCCCC2=O)CC1)c1ccc(Cl)c(Cl)c1)C(=O)c1cc(Cl)cc(Cl)c1 (stereo unspecified)
1.5 nM	1.4 nM	CN(C/C(=N\OCC#N)C(CCN1CCC(N2CCCCC2=O)CC1)c1ccc(Cl)c(Cl)c1)C(=O)c1cc(Cl)cc(Cl)c1 (stereo unspecified)
2.4 nM	3.1 nM	COCCO/N=C(\CN(C)C(=O)c1cc(Cl)cc(Cl)c1)C(CCN1CCC(N2CCCCC2=O)CC1)c1ccc(Cl)c(Cl)c1 (stereo unspecified)

More lines, now with the values behind:

Structure (SMILES)	Ki (Substance-P receptor)	Ki (Substance-K receptor)
COCCO/N=C(\COCc1cc(C(F)(F)F)cc(C(F)(F)F)c1)C(CCN1CCC(O)(c2ccccc2)CC1)c1ccc(Cl)c(Cl)c1 (stereo unspecified)	7 nM	50 nM
CNC(=O)CO/N=C(\COCc1cc(C(F)(F)F)cc(C(F)(F)F)c1)C(CCN1CCC(O)(c2ccccc2)CC1)c1ccc(Cl)c(Cl)c1 (stereo unspecified)	24 nM	45 nM
CN(C/C(=N\OCC(=O)NO)C(CCN1CCC(N2CCCCC2=O)CC1)c1ccc(Cl)c(Cl)c1)C(=O)c1cc(Cl)cc(Cl)c1 (stereo unspecified)	1.2 nM	4.2 nM
CN(C/C(=N\OCCN1CCNCC1)C(CCN1CCC(N2CCCCC2=O)CC1)c1ccc(Cl)c(Cl)c1)C(=O)c1cc(Cl)cc(Cl)c1 (stereo unspecified)	0.5 nM	50 nM
O=C(COCc1cc(C(F)(F)F)cc(C(F)(F)F)c1)C(CCN1CCC(O)(c2ccccc2)CC1)c1ccc(Cl)c(Cl)c1 (stereo unspecified)	15 nM	236 nM
CN(C/C(=N\OCC(=N)NO)[C@H](CCN1CCC(N2CCCCC2=O)CC1)c1ccc(Cl)c(Cl)c1)C(=O)c1cc(Cl)cc(Cl)c1	0.4 nM	0.5 nM
CN(C/C(=N\OCCCS(C)(=O)=O)C(CCN1CCC(N2CCCCC2=O)CC1)c1ccc(Cl)c(Cl)c1)C(=O)c1cc(Cl)cc(Cl)c1 (stereo unspecified)	0.9 nM	3.2 nM
CONC(COCc1cc(C(F)(F)F)cc(C(F)(F)F)c1)C(CCN1CCC(O)(c2ccccc2)CC1)c1ccc(Cl)c(Cl)c1 (stereo unspecified)	25 nM	350 nM
CN(C/C(=N\OCCCn1cccn1)C(CCN1CCC(N2CCCCC2=O)CC1)c1ccc(Cl)c(Cl)c1)C(=O)c1cc(Cl)cc(Cl)c1 (stereo unspecified)	1.7 nM	25 nM
CN(C/C(=N\OCCn1ccnc1)C(CCN1CCC(N2CCCCC2=O)CC1)c1ccc(Cl)c(Cl)c1)C(=O)c1cc(Cl)cc(Cl)c1 (stereo unspecified)	2.8 nM	5.4 nM
CN(C)/N=C(\COCc1cc(C(F)(F)F)cc(C(F)(F)F)c1)C(CCN1CCC(O)(c2ccccc2)CC1)c1ccc(Cl)c(Cl)c1 (stereo unspecified)	38 nM	24 nM
N=C(CO/N=C(\COCc1cc(C(F)(F)F)cc(C(F)(F)F)c1)C(CCN1CCC(O)(c2ccccc2)CC1)c1ccc(Cl)c(Cl)c1)NO (stereo unspecified)	17 nM	19 nM
NC(=O)CO/N=C(\COCc1cc(C(F)(F)F)cc(C(F)(F)F)c1)C(CCN1CCC(O)(c2ccccc2)CC1)c1ccc(Cl)c(Cl)c1 (stereo unspecified)	17 nM	58 nM
